The text below walks through data of US20080051464A1, “Protein phosphatase inhibitors” (The Cleveland Clinic Foundation, priority 2006, published 2008).

One series has as its system pERK1/2 in Jurkat cells. The series is described as follows: pERK1/2 in Jurkat cells (Western blotting). Format: cell-based, human. On the procedure: (§1) Jurkat cells in culture medium (3×10^6 cells/ml, 1 ml/tube) were treated with agents for designated times at room temperature. After brief centrifuging in a microfuge (4,000 rpm, 2 min), the cell pellet was lysed on ice for 30 min in 100 μl of cold lysis buffer (1% NP40, 50 mM Tris, pH 7.4, 150 mM NaCl, 20 mM NaF, 0.2 mM Na3VO4 and 1 mM Na3MO4) containing a cocktail of proteinase inhibitors (Sigma, 1 tablet/10 ml). The lysates were cleared by centrifuging (14,000 rpm, 10 min) in a microfuge at 4° C. to remove insoluble parts, mixed with equal volume of 2×SDS-PAGE sample buffer, boiled for 5 min and analyzed (˜3×10^5 cells/well) by SDS-PAGE/Western blotting. Relative intensities of phosphotyrosine bands were quantified through densitometry analysis.
as §1, with “blotting as described previously (17, 18).” for “blotting.”

Another series relates to B16 melanoma tumors. The series is described as follows: B16 melanoma tumor growth in C57BL/6J mice. The series is classed as in vivo.
Another series in a line: toxicity of L5 in mice. Format: in vivo, mouse. Conditions: 10 mg/kg, daily, s.c., two weeks. On the procedure:
(§2) FIG. 3 illustrates differential toxicity of L5 and L6. Jurkat cells were cultured in the absence or presence of lead compound #5 (L5) (A) or #6 (L6) (B) for 6 days prior to quantification of cell growth by MTT assays. Data represent mean ±SD of triplicate samples. Balb/c mice were treated with L5 (˜10 mg/kg body weight, s.c., daily, M-F/wk) for two weeks to assess its toxicity in vivo (C).
Spleens were harvested one hour post-treatment on day 4 and processed into splenocytes, which were used for assessing pLck levels by SDS-PAGE/Western blotting and for quantification of IFNγ+ cells by ELISPOT assays. Mice were also treated with L5 (˜10 mg/kg body weight, daily, s.c., n=2) to evaluate the toxicity of the compounds in vivo.

Series [1] concerns IFNγ+ cells in mouse splenocytes. The series is described as follows: induction of IFNγ+ cells in mouse splenocytes in vitro (ELISPOT). Format: cell-based. Conditions: for increase of IFNγ+ cells in splenocytes: 16 hrs (FIG. 5A). The method, then:
The splenocytes were cultured in RPMI 1640 medium supplemented with 10% FCS in the absence or presence of designated agents for 16 hrs in flat-bottom 96-well plates coated with a monoclonal antibody specific for mouse IFNγ (mouse IFNγ ELISPOT Kit, R & D System). The plates were then processed for in situ detection of IFNγ+ cells by ELISA following the manufacturer's procedure. Scanning and counting of IFNγ+ cells in the plates were accomplished using an automatic ELISPOT reader with Immunospot2 software (Cellular Technology Ltd). Mouse splenocytes were also untreated or treated with agents for 16 hrs in culture dishes and then stained with appropriate isotype control antibodies or FICT-labeled anti-CD3 monoclonal antibody (BD) plus PE-labeled monoclonal antibody (BD) for intracellular IFNγ following established procedures. The stained samples were washed 3 times, re-suspended in 200 μl of 1% para-formaldehyde solution and analyzed (20,000 cells/sample) using a BD FACS Caliburs cytometer and WinList software.
The splenocytes were cultured in RPMI 1640 medium supplemented with 10% FCS in the absence or presence of designated agents for 16 hrs in flat-bottom 96-well plates coated with a monoclonal antibody specific for mouse IFNγ (mouse IFNγ ELISPOT Kit, R & D System). The plates were then processed for in situ detection of IFNγ+ cells by ELISA following the manufacturer's procedure. Scanning and counting of IFNγ+ cells in the plates were accomplished using an automatic ELISPOT reader with Immunospot2 software (Cellular Technology Ltd).

In series [2] the test system is pZap70, pSlp76 and pLAT in Jurkat cells. The series is described as follows: induction of pZap70, pSlp76 and pLAT in Jurkat cells (Western blotting). Format: cell-based, human. On the procedure: as §1
Jurkat cells in culture medium (3×10^6 cells/ml, 1 ml/tube) were treated with agents for designated times at room temperature. […] The lysates were cleared by centrifuging (14,000 rpm, 10 min) in a microfuge at 4° C. to remove insoluble parts, mixed with equal volume of 2×SDS-PAGE sample buffer, boiled for 5 min and analyzed (˜3×10^5 cells/well) by SDS-PAGE/Western blotting as described previously (17, 18). Relative intensities of phosphotyrosine bands were quantified through densitometry analysis.

The subject of another series is B16 melanoma cells. The series is described as follows: B16 melanoma cell growth in culture (MTT assay). The series is classed as cell-based, mouse. Conditions: doses up to 10 μg/ml, 5 days. From the text:
(§3) L5, L6 and L6 analogs (Chembridge), mouse IFNγ ELISPOT Kit (R & D System) and antibody against pLck-pY394 or pERK1/2 (Cell Signaling) were purchased from commercial sources. Human Jurkat T cell line and murine B16 melanoma cell line (ATCC) and other cancer cell lines were maintained in […] culture medium supplemented with 10% fetal calf serum (FCS). The effects of chemical compounds on cancer cell growth in culture were quantified by MTT assays following our established procedures.
A general note: Formazan colour is commonly taken as a measure of viable cells.

The next series has as its system Jurkat cells. The series is described as follows: Jurkat cell growth in culture (MTT assay). Format: cell-based, human. The method, then:
as §2, §3

Method for B16 melanoma tumors: Tumor volume (n=5) was measured during the study period and calculated using the formula for a prolate spheroid. Student's t test was used for assessing the significance of tumor volume differences among differential treatment groups. Mouse viability (daily) and body weights (weekly) were also recorded during the study period. Major internal organs of the mice were inspected visually upon their termination at the end of the experiment.
To assess anti-tumor activity, C57BL/6J mice (˜8-week old, female, Taconic Farms, Germantown, N.Y.) were inoculated (s.c.) at the flanks with B16 melanoma cells (4×10^4 cells/site). […] Tumor volume (n=5) was measured during the study period and calculated using the formula for a prolate spheroid. Student's t test was used for assessing the significance of tumor volume differences among differential treatment groups. Mouse viability (daily) and body weights (weekly) were also recorded during the study period. Major internal organs of the mice were inspected visually upon their termination at the end of the experiment.

As for `O=C1C=CC(=O)C(c2cc(Cl)ccc2Cl)=C1` [L5], the “levels of pERK1/2” value in the series with pERK1/2 in Jurkat cells (1 μg/ml) is “reduced the levels of pERK1/2”; with pERK1/2 in Jurkat cells (lower doses (0.1 to 0.001 μg/ml)), “not at lower doses”. In addition, in the series on pERK1/2 in Jurkat cells (10-100 ng/ml in Jurkat cells), the “effect on SHP-2 or CD45 phosphatases” value is “did not affect”. Besides, the “survival of treated mice” value is recorded as “survived till the end of the study” in the series on B16 melanoma tumors (1 mg/kg daily, oral gavage) and “survived until the end of the study” in the series with B16 melanoma tumors (3 mg/kg/day, oral). Moreover, the “abnormality in behavior or gross anatomy” value in the series with B16 melanoma tumors (3 mg/kg/day, oral) is “no apparent abnormality in behavior or gross anatomy”. The “growth inhibition of B16 tumors vs control” value in the series with B16 melanoma tumors (3 mg/kg/day, oral, M-F/week, end of study) was ~83%. Moreover, the viability of mice entry in “toxicity of L5 in mice” was “all alive”. In addition, the “induction of IFNγ+ cells” value was “inactive” in series [1] (0.001 μg/ml (FIG. 11)); “effective” in series [1] (0.01 to 1 μg/ml (FIG. 11A)); “induced significant IFNγ+ cells” in series [1] (higher doses (FIG. 16B)); 3-4 fold in series [1] (low doses (0.01 to 1 μg/ml), splenocytes of the same mouse (FIG. 16B)). Further, the “increase of IFNγ+ cells in splenocytes” value is listed as ~14 fold in series [1] (1 μg/ml), ~26 fold in series [1] (3 μg/ml), ~17 fold in series [1] (10 μg/ml) and ~10 fold in series [1] (30 μg/ml). For the same compound, the “minimal effective dose for IFNγ+ cell induction” value in series [1] (FIG. 11) was determined as 10 ng/mL. Also, the “effectiveness compared with SSG in inducing IFNγ+ cells” value in series [1] (maximal induction at a comparable dose, mouse splenocytes) is reported as ~58 fold. Moreover, in series [2] (0.01, 0.1, 1 or 3 μg/ml), the “levels of pZap70 and pSlp76” value is listed as “obviously increased”. Besides, the pLAT entry in series [2] (L5-treated Jurkat cells) is “induced pLAT”. For the same compound, the “direct toxicity against B16 cells” value in the series with B16 melanoma cells is on record as “little direct toxicity”. For the same compound, the “toxicity against Jurkat cells in culture (summary)” value in the series with Jurkat cells is reported as “marked toxicity”. In the series on Jurkat cells (~30 ng-1 μg/ml, 6 days), the “growth of Jurkat cells in culture” value is given as “not markedly affected”.
